Where two headings read alike, the source gives them in different places.
Key:
[1] = molecular target: T1, kappa opioid receptor (KOR) (Homo sapiens, UniProt P41145); assay: cell-based; conditions: after activation with dynorphin B
T1 construct: host or cells: CHO-K1
Description: KOR cAMP Antagonist Assay

mu opioid receptor (MOR) = mu opioid receptor (MOR) (Homo sapiens, UniProt P35372); assay: MOR cAMP agonist assay
[2] = kOR cAMP IC50, CHO-K1 cells expressing kOR
[3] = CHO-K1 cells expressing kOR, read-out: kOR cAMP IC50
[4] = read-out: mOR cAMP EC50, CHO-K1 cells stably expressing mOR, cAMP levels

Chain of mu opioid receptor (MOR) (P35372 whole entry): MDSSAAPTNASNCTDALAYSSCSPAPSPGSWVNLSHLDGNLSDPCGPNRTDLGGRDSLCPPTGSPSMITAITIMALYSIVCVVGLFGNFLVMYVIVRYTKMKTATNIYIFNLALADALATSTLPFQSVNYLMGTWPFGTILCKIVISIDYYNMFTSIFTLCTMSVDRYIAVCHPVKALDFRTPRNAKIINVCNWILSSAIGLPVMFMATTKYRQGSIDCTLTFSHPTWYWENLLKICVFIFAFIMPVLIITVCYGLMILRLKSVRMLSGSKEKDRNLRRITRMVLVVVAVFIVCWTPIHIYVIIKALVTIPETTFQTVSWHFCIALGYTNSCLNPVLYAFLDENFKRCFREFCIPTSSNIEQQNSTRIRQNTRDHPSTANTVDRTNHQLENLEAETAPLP
T1 sequence (P41145 whole entry): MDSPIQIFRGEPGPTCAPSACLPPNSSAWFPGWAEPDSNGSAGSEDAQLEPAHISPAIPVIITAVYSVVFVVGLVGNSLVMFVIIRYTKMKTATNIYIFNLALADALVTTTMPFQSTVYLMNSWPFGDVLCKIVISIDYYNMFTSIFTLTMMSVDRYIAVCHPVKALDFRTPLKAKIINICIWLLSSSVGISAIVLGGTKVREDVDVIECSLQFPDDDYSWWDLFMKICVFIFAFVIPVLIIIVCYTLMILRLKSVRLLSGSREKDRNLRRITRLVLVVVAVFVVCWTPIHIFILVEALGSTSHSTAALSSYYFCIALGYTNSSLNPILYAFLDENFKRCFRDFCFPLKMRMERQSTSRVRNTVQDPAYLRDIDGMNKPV

SMILES | IC50 [1, 2] | EC50 (mu opioid receptor (MOR)) | IC50 [1, 3] | EC50 (mu opioid receptor (MOR); [4]) | IC50 ([1]; read-out: kOR cAMP IC50, CHO-K1 cells expressing kOR)
C[C@H](OC(=O)NC[C@H](Cc1ccc(C(N)=O)cc1)N(C)C)c1ccccc1 [Compound A-3, (S)-1-phenylethyl ((S)-3-(4-carbamoylphenyl)-2-(dimethylamino)propyl) carbamate] | > 1000 nM | < 100 nM | – | – | –
CN(C)[C@H](CNC(=O)[C@@H]1C[C@@]1(C)c1ccccc1)Cc1ccc(C(N)=O)cc1 [Compound B-3, 4-((S)-2-(dimethylamino)-3-((1R,2R)-2-methyl-2-phenylcyclopropane-1-carboxamido)propyl)benzamide] | > 1000 nM | < 100 nM | – | – | –
Cc1cc(C(N)=O)cc(C)c1C[C@H](N)CNC(=O)N[C@H](c1ccccc1)C1CC1 [Compound A-6, 4-((S)-2-amino-3-(3-((S)-cyclopropyl(phenyl)methyl)ureido)propyl)-3,5-dimethylbenzamide] | 100 to 1000 nM | 100 to 1000 nM | – | – | –
Cc1cc(C[C@@H](CNC(=O)[C@@H]2C[C@]2(C)c2ccccc2)N(C)CC2CC2)ccc1O [Compound B-40, (1R,2S)—N—((S)-2-((cyclopropylmethyl)(methyl)amino)-3-(4-hydroxy-3-methylphenyl)propyl)-2-methyl-2-phenylcyclopropane-1-carboxamide] | > 1000 nM | < 100 nM | – | – | –
CN(C)[C@H](CNC(=O)[C@@H]1C[C@]1(C)c1ccccc1)Cc1ccc(C(N)=O)cc1 [Compound B-5, 4-((S)-2-(dimethylamino)-3-((1R,2S)-2-methyl-2-phenylcyclopropane-1-carboxamido)propyl)benzamide] | < 100 nM | < 100 nM | – | – | –
CN(C)[C@H](CNC(=O)[C@H]1CCCN1c1ccccc1)Cc1ccc(C(N)=O)cc1 [Compound B-9, (R)—N—((S)-3-(4-carbamoylphenyl)-2-(dimethylamino)propyl)-1-phenylpyrrolidine-2-carboxamide] | > 1000 nM | 100 to 1000 nM | – | – | –
CN(C)[C@H](CNC(=O)C1CC1(C)c1ccccc1)Cc1ccc(C(N)=O)cc1 (stereo partly drawn) [Compound B-61, 4-((2S)-2-(dimethylamino)-3-(2-methyl-2-phenylcyclopropane-1-carboxamido)propyl)benzamide] | > 1000 nM | < 100 nM | – | – | –
CN(C)[C@H](CNC(=O)[C@@H]1C[C@@]1(C)c1ccccc1)Cc1ccc(O)cc1Cl [Compound B-1, (1R,2R)—N—((S)-3-(2-chloro-4-hydroxyphenyl)-2-(dimethylamino)propyl)-2-methyl-2-phenylcyclopropane-1-carboxamide] | < 100 nM | < 100 nM | – | – | –
CN(C)[C@H](CNC(=O)[C@@H]1CCCN1c1ccccc1)Cc1ccc(C(N)=O)cc1 [Compound B-10, (S)—N—((S)-3-(4-carbamoylphenyl)-2-(dimethylamino)propyl)-1-phenylpyrrolidine-2-carboxamide] | 100 to 1000 nM | 100 to 1000 nM | – | – | –
CN(C)[C@H](CNC(=O)[C@@H]1C[C@@]1(C)c1ccccc1)Cc1c(F)cc(O)cc1F [Compound B-14, (1R,2R)—N—((S)-3-(2,6-difluoro-4-hydroxyphenyl)-2-(dimethylamino)propyl)-2-methyl-2-phenylcyclopropane-1-carboxamide] | > 1000 nM | < 100 nM | – | – | –
CN(C)[C@H](CNC(=O)N[C@H](c1ccccc1)C1CC1)Cc1ccc(C(N)=O)cc1 [Compound A-4, 4-((S)-3-(3-((S)-cyclopropyl(phenyl)methyl)ureido)-2-(dimethylamino)propyl)benzamide] | < 100 nM | < 100 nM | – | – | –
Cc1cc(C(N)=O)cc(C)c1C[C@@H](CNC(=O)[C@@H]1C[C@@]1(C)c1ccccc1)N(C)C [Compound B-8, 4-((S)-2-(dimethylamino)-3-((1R,2R)-2-methyl-2-phenylcyclopropane-1-carboxamido)propyl)-3,5-dimethylbenzamide] | 100 to 1000 nM | < 100 nM | – | – | –
C[C@@]1(c2ccccc2)C[C@H]1C(=O)NC[C@@H]1Cc2ccc(O)cc2N1 [Compound B-16, (1R,2R)—N—(((S)-6-hydroxyindolin-2-yl)methyl)-2-methyl-2-phenylcyclopropane-1-carboxamide] | – | > 1000 nM | > 1000 nM | – | –
C[C@H](OC(=O)NC[C@@H](N)Cc1ccc(C(N)=O)cc1)c1ccccc1 [Compound A-2, (S)-1-phenylethyl ((S)-2-amino-3-(4-carbamoylphenyl)propyl)carbamate] | – | > 1000 nM | > 1000 nM | – | –
CN(C)[C@H](CNC(=O)[C@@H]1C[C@]1(C)c1ccccc1)Cc1cc2cn[nH]c2cc1Cl [Compound B-54, (1R,2S)—N—((S)-3-(6-chloro-2H-indazol-5-yl)-2-(dimethylamino)propyl)-2-methyl-2-phenylcyclopropane-1-carboxamide] | 100 to 1000 nM | < 100 nM | – | – | –
CN(C)[C@H](CNC(=O)[C@@H]1C[C@@]1(C)c1ccccc1)Cc1ccc2[nH]ncc2c1 [Compound B-20, (1R,2R)—N—((S)-2-(dimethylamino)-3-(1H-indazol-5-yl)propyl)-2-methyl-2-phenylcyclopropane-1-carboxamide] | > 1000 nM | < 100 nM | – | – | –

SMILES | IC50 [1, 2] | EC50 (mu opioid receptor (MOR)) | IC50 [1, 3] | EC50 (mu opioid receptor (MOR); [4]) | IC50 ([1]; read-out: kOR cAMP IC50, CHO-K1 cells expressing kOR)
Cc1cc(C(N)=O)cc(C)c1C[C@H](N)CNC(=O)O[C@@H](C)c1ccccc1 [Compound A-5, (S)-1-phenylethyl ((S)-2-amino-3-(4-carbamoyl-2,6-dimethylphenyl)propyl)carbamate] | < 100 nM | 100 to 1000 nM | – | – | –
CN(C)[C@H](CNC(=O)[C@@H]1C[C@@]1(C)c1ccccc1)Cc1ccc(C(N)=O)cc1Cl [Compound B-60, 3-chloro-4-((S)-2-(dimethylamino)-3-((1R,2R)-2-methyl-2-phenylcyclopropane-1-carboxamido)propyl)benzamide] | < 100 nM | – | – | < 100 nM | –
CN(C)[C@H](CNC(=O)[C@@H]1C[C@H]1c1ccccc1)Cc1ccc(O)cc1 [Compound B-17, (1R,2R)—N—((S)-2-(dimethylamino)-3-(4-hydroxyphenyl)propyl)-2-phenylcyclopropane-1-carboxamide] | 100 to 1000 nM | < 100 nM | – | – | –
C[C@H](NC(=O)NC[C@H](Cc1ccc(C(N)=O)cc1)N(C)C)c1ccccc1 [Compound A-1, 4-((S)-2-(dimethylamino)-3-(3-((S)-1-phenylethyl)ureido)propyl) benzamide] | 100 to 1000 nM | > 1000 nM | – | – | –
CN(C)[C@H](CNC(=O)[C@@H]1C[C@]1(C)c1ccccc1)Cc1ccc(C(N)=O)cc1Cl [Compound B-7, 3-chloro-4-((S)-2-(dimethylamino)-3-((1R,2S)-2-methyl-2-phenylcyclopropane-1-carboxamido)propyl)benzamide] | < 100 nM | < 100 nM | – | – | –
CN(C)[C@H](CNC(=O)[C@H]1C[C@@]1(C)c1ccccc1)Cc1ccc(C(N)=O)cc1 [Compound B-4, 4-((S)-2-(dimethylamino)-3-((1S,2R)-2-methyl-2-phenylcyclopropane-1-carboxamido)propyl)benzamide] | 100 to 1000 nM | < 100 nM | – | – | –
CN(C)[C@H](CNC(=O)[C@H]1C[C@@]1(C)c1ccccc1)Cc1ccc(O)cc1 [Compound B-11, (1S,2R)—N—((S)-2-(dimethylamino)-3-(4-hydroxyphenyl)propyl)-2-methyl-2-phenylcyclopropane-1-carboxamide] | > 1000 nM | 100 to 1000 nM | – | – | –
CN(C)[C@H](CNC(=O)[C@@H]1C[C@]1(C)c1ccccc1)Cc1ccc2[nH]c(=O)oc2c1 [Compound B-49, (1R,2S)—N—((S)-2-(dimethylamino)-3-(2-oxo-2,3-dihydrobenzo[d]oxazol-6-yl)propyl)-2-methyl-2-phenylcyclopropane-1-carboxamide] | > 1000 nM | < 100 nM | – | – | –
Cc1cc(C(N)=O)cc(C)c1C[C@@H](CNC(=O)C[C@@H](C)c1ccccc1)N(C)C [Compound A-11, 4-((S)-2-(dimethylamino)-3-((R)-3-phenylbutanamido)propyl)-3,5-dimethylbenzamide] | 100 to 1000 nM | > 1000 nM | – | – | –
CN(C)[C@H](CNC(=O)[C@@H]1C[C@]1(C)c1ccccc1)Cc1ccc(C(=O)NC2CC2)c(F)c1 [Compound B-39, N-cyclopropyl-4-((S)-2-(dimethylamino)-3-((1R,2S)-2-methyl-2-phenylcyclopropane-1-carboxamido)propyl)-2-fluorobenzamide] | > 1000 nM | < 100 nM | – | – | –
CN(C)[C@H](CNC(=O)[C@@H]1C[C@@]1(C)c1ccccc1)Cc1ccc(O)cc1 [Compound B-62, (1R,2R)—N—((S)-2-(dimethylamino)-3-(4-hydroxyphenyl)propyl)-2-methyl-2-phenylcyclopropane-1-carboxamide] | 100 to 1000 nM | < 100 nM | – | – | –
CN(C)[C@H](CNC(=O)[C@H]1C[C@@]1(C)c1ccccc1)Cc1ccc(O)cc1 [Compound B-58, (1S,2R)—N—((S)-2-(dimethylamino)-3-(4-hydroxyphenyl)propyl)-2-methyl-2-phenylcyclopropane-1-carboxamide] | – | – | – | 100 to 1000 nM | > 1000 nM
C[C@]1(c2ccccc2)C[C@H]1C(=O)NC[C@H](Cc1ccc2[nH]ncc2c1)N1CCOCC1 [Compound B-43, (1R,2S)—N—((S)-3-(2H-indazol-5-yl)-2-morpholinopropyl)-2-methyl-2-phenylcyclopropane-1-carboxamide] | – | > 1000 nM | > 1000 nM | – | –
Cc1cc(C(N)=O)cc(C)c1C[C@@H](CNC(=O)N[C@H](c1ccccc1)C1CC1)N(C)C [Compound A-9, 4-((S)-3-(3-((S)-cyclopropyl(phenyl)methyl)ureido)-2-(dimethylamino)propyl)-3,5-dimethylbenzamide] | – | > 1000 nM | > 1000 nM | – | –
Cc1cc(C(N)=O)cc(C)c1C[C@@H](CNC(=O)C[C@H](C)c1ccccc1)N(C)C [Compound A-8, 4-((S)-2-(dimethylamino)-3-((S)-3-phenylbutanamido)propyl)-3,5-dimethylbenzamide] | – | > 1000 nM | > 1000 nM | – | –

Reference: patent US20210147343A1 (priority 2018, published 2021)
